Assay results taken from US12384800B2, “Antitumoral compounds” (priority 2017, dated 2025).
Values joined by “and” are separate entries in the source; they are usually repeats but may differ in a detail not shown here. Identical values can stand only once.

Legend:
[1] = tested on: HT1080 tumors; test: Human fibrosarcoma xenograft, total diameter (tumor + leg)
[2] = tested on: MDA-MB-231 tumors; test: Human breast xenograft, tumor volume
Description: (§4) Female athymic nu/nu mice (Harlan Laboratories Models, S.L. Barcelona, Spain or Envigo, Spain) were utilized for all experiments. Animal were housed in individually ventilated cages Sealsafe® Plus, Techniplast S.P.A.), up to ten per cage on a 12-hour light-dark cycle at 21-23° C. and 40-60% humidity. […] Animals were acclimated for at least 5 days prior to tumor implantation with a tumor cell suspension.
MDA-MB-231 cells were maintained in vitro at 37° C. with 5% CO2 in Dulbecco's Modified Eagle's Medium (Sigma-Aldrich, Co). Culture cells were passaged every 3 to 5 days upon reaching confluence.
(§5) Treatment tolerability was assessed by monitoring body weight evolution, clinical signs of systemic toxicity, as well as evidences of local damage in the injection site.
(§6) In Xenograft Studies with Other Cell Lines: • Tumor volume was calculated using the equation (a·b^2)/2, where a: length (longest diameter) and b: width (shortest diameter) were measured in mm by using digital caliper (Fowler Sylvac, S235PAT).
(§7) Treatments producing >20% lethality and/or 20% net body weight loss were considered toxic.

[3] = tested on: H460 tumors; test: Human lung (NSCLC) xenograft, tumor volume
Description: as §4
H460 cells were maintained in vitro at 37° C. with 5% CO2 in Dulbecco's Modified Eagle's Medium (Sigma-Aldrich, Co). Culture cells were passaged every 3 to 5 days upon reaching confluence. Each animal was subcutaneously implanted (on the right flank using 26G needle and a 1 cc syringe) at 4-6 weeks of age with 5×10^6 H460 cells suspended in 0.05 mL of a solution consisting of 50% Matrigel® (Corning Incorporated Life Sciences) and 50% medium without serum or antibiotics.
as §5, §6, §7
Tables and figures summarize the data obtained from complete experimental groups, i.e. those groups keeping the initial number of animals, n=8-10.

[4] = tested on: A2780 tumors; test: Human ovarian xenograft, tumor volume
Description: as §4
Culture cells were passaged every 3 to 5 days upon reaching confluence. Each animal was subcutaneously implanted (on the right flank using 26G needle and a 1 cc syringe) at 4-6 weeks of age with 10×10^6 A2780 cells suspended in 0.05 mL of a solution consisting of 50% Matrigel® (Corning Incorporated Life Sciences) and 50% medium without serum or antibiotics.
as §5, §6, §7

[5] = tested on: xenografted human tumor cell lines (breast, kidney and ovarian cancer); details: xenografted human tumor cell lines in mice (breast, kidney and ovarian cancer); cited from earlier work
[6] = tested on: HGC27 tumors; test: Human gastric xenograft, tumor volume
Description: as §4
HGC27 cells were maintained in vitro at 37° C. with 5% CO2 in Iscove's Modified Dulbecco's Medium (Sigma Aldrich, Co). Culture cells were passage every 3 to 5 days on reaching confluence. Each animal was subcutaneously implanted (on the right flank using 26G needle and a 1 cc syringe) at 4-6 weeks of age with 5×10^6 HGC-27 cells suspended in 0.05 mL of a solution consisting of 50% Matrigel® (Corning Incorporated Life Sciences), 50% medium without serum or antibiotics.
as §5, §6, §7

[7] = tested on: A549 cells (lung carcinoma, NSCLC); test: cells; details: Homo sapiens, A549, 72 h
How it was run: (§1)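 Cells seeded at 5000/well, attached 18 h, then exposed 72 h to ten 2/5 serial dilutions (10 to 0.003 μg/mL; 1% DMSO final) in triplicate; time-zero plate fixed. SRB staining after glutaraldehyde fixation; growth effects by NCI algorithm, four-parameter logistic fit.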

[8] = tested on: HT29 cells (colorectal adenocarcinoma); test: cells; details: Homo sapiens, HT-29, 72 h
How it was run: as §1

[9] = tested on: PSN1 cells (pancreas adenocarcinoma); test: cells; details: Homo sapiens, PSN1, 72 h, read-out: TGI
How it was run: as §1

[10] = tested on: MDA-MB-231 cells (breast adenocarcinoma); test: cells; details: Homo sapiens, MDA-MB-231, 72 h
How it was run: as §1

[11] = MTMD (Maximum Tolerated Multiple Dose) determination, iv weekly x 3; type: in vivo; details: mice; iv/Q7d × 3
Text: (§2) Female CD-1 or Athymic Nude-Fox1 nu/nu mice (Envigo) were utilized for all experiments. […] Animals were acclimated for five days prior to being individually tattoo-identified. Animal protocols were reviewed and approved according to the regional Institutional Animal Care and Use Committees.
(§3) Mice were randomly allocated into experimental groups and intravenously administered, once for the MTD (Maximum Tolerated Dose) determination or one administration a week during three consecutive weeks, for the MTMD (Maximum Tolerated Multiple Dose) determination study. The animals were administered with white formulation or with compound dissolved in the experimental formulation at different concentrations. The volume administered was always […]. Once administered, animals were monitored for clinical signs of systemic toxicity, changes in body weight and mortality up to 14 days after the administration.

[12] = MTD (Maximum Tolerated Dose) determination, single iv administration; type: in vivo; details: mice, iv/SD (single dose), monitored up to 14 days
Text: as §2, §3

[13] = Day 7, iv Days 0, 7 and 14, PM01183 […], 4-R 0.30 mg/kg
[14] = Day 9, iv Days 0, 7 and 14, PM01183 […], 4-R 0.30 mg/kg
[15] = Day 14, iv Days 0, 7 and 14, PM01183 […], 4-R 0.30 mg/kg
[16] = Day 21, iv Days 0, 7 and 14, PM01183 […], 4-R 0.30 mg/kg
[17] = Day 23, iv Days 0, 7 and 14, PM01183 […], 4-R 0.30 mg/kg

Compound: COc1ccc2[nH]c3c(c2c1)CCN[C@]31CS[C@@H]2c3c(OC(C)=O)c(C)c4c(c3[C@H](COC1=O)N1[C@@H]2[C@H]2c3c(cc(C)c(OC)c3O)C[C@@H]([C@@H]1O)N2C)OCO4 [PM01183, reference compound]
- Total diameter (tumor + leg) ([1]; Day 2): 9.8 mm
- Total diameter (tumor + leg) ([1]; Day 2, iv Days 0, 7 and 14, PM01183 […], Compound D 0.5 mg/kg): 9.2 mm
- Total diameter (tumor + leg) ([1]; Day 5): 9.7 mm
- Total diameter (tumor + leg) ([1]; Day 7): 11.4 mm
- Total diameter (tumor + leg) [1, 13]: 11.2 mm
- Total diameter (tumor + leg) ([1]; Day 7, iv Days 0, 7 and 14, PM01183 […], Compound D 0.5 mg/kg): 12.2 mm
- Total diameter (tumor + leg) ([1]; Day 9): 12.7 mm
- Total diameter (tumor + leg) [1, 14]: 12.3 mm
- Total diameter (tumor + leg) ([1]; Day 9, iv Days 0, 7 and 14, PM01183 […], Compound D 0.5 mg/kg): 12.6 mm
- Total diameter (tumor + leg) ([1]; Day 12): 13.7 mm
- Total diameter (tumor + leg) ([1]; Day 12, iv Days 0, 7 and 14, PM01183 […], Compound D 0.5 mg/kg): 13.1 mm
- Total diameter (tumor + leg) ([1]; Day 14): 14.6 mm
- Total diameter (tumor + leg) [1, 15]: 14.6 mm
- Total diameter (tumor + leg) ([1]; Day 14, iv Days 0, 7 and 14, PM01183 […], Compound D 0.5 mg/kg): 14.6 mm
- Total diameter (tumor + leg) ([1]; Day 16): 15.5 mm
- Total diameter (tumor + leg) ([1]; Day 16, iv Days 0, 7 and 14, PM01183 […], Compound D 0.5 mg/kg): 14.5 mm
- Total diameter (tumor + leg) ([1]; Day 19): 15.6 mm
- Total diameter (tumor + leg) ([1]; Day 19, iv Days 0, 7 and 14, PM01183 […], Compound D 0.5 mg/kg): 15.0 mm
- Total diameter (tumor + leg) ([1]; Day 21): 18.0 mm
- Total diameter (tumor + leg) [1, 16]: 15.1 mm
- Total diameter (tumor + leg) ([1]; Day 21, iv Days 0, 7 and 14, PM01183 […], Compound D 0.5 mg/kg): 18.0 mm
- Total diameter (tumor + leg) [1, 17]: 16.3 mm
- Median Tumor Volume ([2]; Day 4): 177.2 mm^3
- Median Tumor Volume ([2]; Day 7): 189.0 mm^3 and 185.9 mm^3 and 186.3 mm^3
- Median Tumor Volume ([2]; Day 11): 250.7 mm^3
- Median Tumor Volume ([2]; Day 14): 230.1 mm^3 and 290.8 mm^3 and 266.1 mm^3
- Median Tumor Volume ([2]; Day 18): 327.7 mm^3
- Median Tumor Volume ([2]; Day 21): 305.9 mm^3 and 337.9 mm^3 and 391.0 mm^3
- Median Tumor Volume ([2]; Day 25): 493.1 mm^3
- Median Tumor Volume ([2]; Day 28): 535.8 mm^3 and 507.4 mm^3 and 627.3 mm^3
- Median Tumor Volume ([2]; Day 32): 789.0 mm^3
- Median Tumor Volume ([2]; Day 35): 819.7 mm^3 and 796.1 mm^3
- Median Tumor Volume ([2]; Day 36): 1022.0 mm^3
- Median Tumor Volume ([2]; Day 39): 1294.2 mm^3
- Median Tumor Volume ([2]; Day 42): 962.7 mm^3 and 1062.5 mm^3 and 1643.3 mm^3
- Median Tumor Volume ([2]; Day 46): 1658.9 mm^3
- Median Tumor Volume ([2]; Day 49): 1301.3 mm^3 and 1416.3 mm^3 and 1938.0 mm^3
- Median Tumor Volume ([2]; Day 52): 2199.4 mm^3
- Median Tumor Volume ([2]; Day 56): 1673.3 mm^3
- Median Tumor Volume ([2]; Day 63): 1811.9 mm^3
- Median Tumor Volume ([3]; Day 2): 457.0 mm^3
- Median Tumor Volume ([3]; Day 4): 861.5 mm^3
- Median Tumor Volume ([3]; Day 7): 940.4 mm^3 and 1004.0 mm^3 and 1280.2 mm^3
- Median Tumor Volume ([3]; Day 9): 1210.3 mm^3 and 1211.3 mm^3 and 1424.9 mm^3
- Median Tumor Volume ([3]; Day 11): 1433.8 mm^3 and 1969.9 mm^3
- Median Tumor Volume ([3]; Day 12): 1515.4 mm^3
- Median Tumor Volume ([3]; Day 14): 1529.5 mm^3 and 1633.3 mm^3
- Median Tumor Volume ([3]; Day 16): 1723.9 mm^3
- Median Tumor Volume ([3]; Day 19): 2112.3 mm^3
- Median Tumor Volume ([3]; Day 21): 2409.4 mm^3
- Median Tumor Volume ([4]; Day 2): 235.5 mm^3 and 236.5 mm^3
- Median Tumor Volume ([4]; Day 3): 454.5 mm^3
- Median Tumor Volume ([4]; Day 4): 463.2 mm^3
- Median Tumor Volume ([4]; Day 5): 671.2 mm^3 and 772.1 mm^3
- Median Tumor Volume ([4]; Day 7): 1048.9 mm^3 and 1161.5 mm^3 and 986.3 mm^3
- Median Tumor Volume ([4]; Day 9): 1451.4 mm^3
- Median Tumor Volume ([4]; Day 10): 1615.6 mm^3
- Median Tumor Volume ([4]; Day 11): 2062 mm^3 and 2062.0 mm^3
- Median Tumor Volume ([4]; Day 12): 2020.3 mm^3 and 1703.0 mm^3
- Median Tumor Volume ([4]; Day 14): 2029.3 mm^3
- in vivo activity [5]: significant in vivo activity
- Median Tumor Volume ([6]; Day 2): 317.5 mm^3 and 372.4 mm^3 and 395.6 mm^3
- Median Tumor Volume ([6]; Day 5): 404.0 mm^3 and 474.1 mm^3 and 572.4 mm^3
- Median Tumor Volume ([6]; Day 7): 485.7 mm^3 and 571.8 mm^3 and 766.6 mm^3
- Median Tumor Volume ([6]; Day 9): 604.6 mm^3 and 787.9 mm^3 and 950.7 mm^3
- Median Tumor Volume ([6]; Day 12): 760.8 mm^3 and 951.1 mm^3
- Median Tumor Volume ([6]; Day 14): 789.6 mm^3 and 1064.4 mm^3 and 1199.4 mm^3
- Median Tumor Volume ([6]; Day 16): 719.5 mm^3 and 1346.1 mm^3 and 1353.1 mm^3
- Median Tumor Volume ([6]; Day 19): 895.9 mm^3 and 1691.8 mm^3 and 1294.3 mm^3
- Median Tumor Volume ([6]; Day 21): 1051.3 mm^3 and 1920.0 mm^3 and 1335.1 mm^3
- Median Tumor Volume ([6]; Day 23): 2011.4 mm^3 and 1320.3 mm^3
- Median Tumor Volume ([6]; Day 26): 1901.2 mm^3 and 2102.2 mm^3 and 1364.5 mm^3
- Median Tumor Volume ([6]; Day 28): 2028.9 mm^3
- Median Tumor Volume ([6]; Day 30): 1671.9 mm^3
- Median Tumor Volume ([6]; Day 33): 2009.2 mm^3

Compound: COc1ccc2[nH]c3c(c2c1)C[C@H](CO)N[C@]31CS[C@@H]2c3c(OC(C)=O)c(C)c4c(c3[C@H](COC1=O)N1[C@@H]2[C@H]2c3c(cc(C)c(OC)c3O)C[C@@H]([C@@H]1O)N2C)OCO4 [Compound 19-R]
- CC50 ([7]; read-out: LC50): > 123 nM
- IC (total growth inhibition) ([7]; read-out: TGI): 0.00356 µM
- CC50 ([8]; read-out: LC50): > 123 nM
- IC (total growth inhibition) ([8]; read-out: TGI): 0.00172 µM
- IC (total growth inhibition) [9]: 0.00135 µM
- CC50 ([10]; read-out: LC50): > 123 nM
- IC (total growth inhibition) ([10]; read-out: TGI): 0.00135 µM
- MTMD [11]: 0.15 mg/kg
- MTD at 14 days ([12]; female, mouse, in vivo): 0.15 mg/kg

Compound: COc1c(C)cc2c(c1O)[C@@H]1[C@@H]3[C@@H]4SC[C@]5(N[C@@H](CO)Cc6c5[nH]c5ccccc65)C(=O)OC[C@@H](c5c6c(c(C)c(OC(C)=O)c54)OCO6)N3[C@@H](O)[C@H](C2)N1C [Compound 4-R]
- Total diameter (tumor + leg) ([1]; Day 0, iv Days 0, 7 and 14, PM01183 […], 4-R 0.30 mg/kg): 8.1 mm
- Total diameter (tumor + leg) ([1]; Day 2, iv Days 0, 7 and 14, PM01183 […], 4-R 0.30 mg/kg): 8.6 mm
- Total diameter (tumor + leg) [1, 13]: 8.7 mm
- Total diameter (tumor + leg) [1, 14]: 9.0 mm
- Total diameter (tumor + leg) [1, 15]: 9.3 mm
- Total diameter (tumor + leg) ([1]; Day 18, iv Days 0, 7 and 14, PM01183 […], 4-R 0.30 mg/kg): 10.3 mm
- Total diameter (tumor + leg) [1, 16]: 11.5 mm
- Total diameter (tumor + leg) [1, 17]: 13.3 mm
- Total diameter (tumor + leg) ([1]; Day 25, iv Days 0, 7 and 14, PM01183 […], 4-R 0.30 mg/kg): 15.8 mm
- Total diameter (tumor + leg) ([1]; Day 28, iv Days 0, 7 and 14, 4-R 0.30 mg/kg): 18.0 mm
- MTMD [11]: 0.30 mg/kg
- MTD [12]: 0.25 mg/kg
